According to patent US11007177B2, “Compositions comprising a combination of a substituted flavonoid and a substituted indole for treating ocular diseases” (University of Macau, priority 2015, dated 2021):

Tested on: TSP-1 null mice
Assay: Corneal fluorescein staining in murine model of Sjögren's syndrome
Assay type: in vivo
Conditions: 5 μL eye drops twice daily, 30 μM quercetin and/or 0.5 μM I3O in PBS
Procedure: Mice. Thrombospondin (TSP)-1 null mice (C57BL/6 background), were bred in-house in a pathogen-free facility at Boston University School of Medicine, Boston, Mass. All experiments were conducted in accordance with institutional guidelines and ARVO Statement of the Use of Animals in Ophthalmic and Vision Research.
Corneal Fluorescein Staining. Sodium fluorescein (1%), 1 μl was applied to the cornea of mice under anesthesia. Three minutes later, eyes were flushed with PBS to remove excess fluorescein, and corneal staining was evaluated and photographed with a slit lamp biomicroscope (Humphrey-Zeiss, Dublin, Calif.) using a cobalt blue light. Punctate staining was recorded using a standardized National Eye Institute grading system of 0 to 3 for each of the five areas of the cornea (Lemp, 1995, CLAO J. 21:221-232).
TSP-1 deficient (null) mice (12 wk old) were treated with eyedrops twice daily for a period of two weeks. The 5 μL eye drops were either PBS as a control or 0.5 μM I3O and 30 μM quercetin in PBS, 0.5 μM I3O alone in PBS, or 30 μM quercetin alone in PBS. […] Clinical signs of dry eye disease, including effect on the corneal surface and peroxidase levels in tears, were measured at baseline (prior to initiating treatment) and at the end of week 1 and effect on the corneal surface was assayed again at the end of week 2. […]

Compound | corneal surface / corneal fluorescein score, week 2 (week 2, FIG. 5) | corneal surface / corneal fluorescein score, week 1 (week 1, FIG. 5)
O=C1Nc2ccccc2/C1=C1/Nc2ccccc2/C1=N\O [Heterodimer I3O, indirubin-3′-oxime] | small improvement in corneal fluorescein score at week 2, but it was not significant | –
O=c1c(O)c(-c2ccc(O)c(O)c2)oc2cc(O)cc(O)c12 [quercetin] | – | significant improvement in the corneal surface
